Publication PMC12867150, “A fungi-derived cyclic peptide enhances Th9-mediated antitumor immunity by targeting ZAP70 and SREBP1” (The Journal of Clinical Investigation, 2025)

Tests used:
[1] = system: B16-OVA melanoma; assay: Adoptive transfer of OT-II Th9 cells, B16-OVA tumor growth in β2m-KO mice (Figure 2H); assay type: in vivo; conditions: result in words
Source text: (A) Schematic of the therapeutic model. C57BL/6 mice were subcutaneously inoculated with B16-OVA melanoma cells (5 × 10^5) and preconditioned with cyclophosphamide (CTX) on day 4. […] (B–G) Flow-cytometric analysis of transferred CD45.1^+ OT-II Th9 cells (B and C) and endogenous CD4^+ (D and E) and CD8^+ T cells (F and G) in spleens and tumors, showing frequencies and absolute numbers (n = 4 mice per group). (H) Tumor growth curves in B16-OVA–bearing C57BL/6 or β2-microglobulin–deficient (β2m-KO) mice following transfer of control or EpA-treated OT-II Th9 cells (n = 4 mice per group). (I) C57BL/6 mice bearing B16-OVA tumors were treated with control or EpA-induced OT-II Th9 cells (2 × 10^6, i.v., day 5), followed by anti–PD-1 antibody (200 μg, i.p.) on day 7, and (100 μg, i.p.) on day 10 and 12. Tumor growth is shown with individual trajectories (n = 6 mice per group). Statistical analysis was performed using 2-tailed unpaired Student’s t test ([…], B–G) or 1-way ANOVA with Tukey’s post hoc test (H and I). All data are presented as the mean ± SEM. *P < 0.05, **P < 0.01, ***P < 0.001. Schematic in A created using BioRender (https://Biorender.com).
To directly assess the requirement for endogenous CD8^+ T cells, we utilized β2-microglobulin–deficient (β2m-KO) mice, which lack functional MHC class I and are therefore devoid of CD8^+ T cells ([32]). […]

[2] = system: phosphorylated ZAP70; assay: Flow cytometry of phosphorylated ZAP70 in human Th9 cells (Figure 8F); assay type: cell-based; conditions: result in words
Experimental: For Th9 polarization, cultures were supplemented with IL-4 (10 ng/mL, PeproTech, catalog AF-200-04), TGF-β (1 ng/mL), and neutralizing anti–IFN-γ monoclonal antibody (10 μg/mL, clone B27, BioXcell, catalog BE0245). After 3 days of initial culture, cells were either collected for downstream assays or continued in extended culture with refreshed cytokines to maintain lineage commitment without antibodies. Th9 cells were collected at days 4, 5, and 6 for subsequent in vitro assays. For adoptive transfer studies, day 4–cultured Th9 cells were washed and prepared for intravenous injection.
Details regarding staining panels (human and mouse), reagents (including clones and catalog numbers), acquisition settings, compensation/controls, and analysis procedures are provided in Supplemental Methods.
MH9A4, Biolegend, Cat. No. 507605, PE/Cy7, clone MH9A4, Biolegend, Cat. No. […]
clone Mab11, Biolegend, Cat. No. 502908), Perforin (APC, clone dG9, Biolegend, Cat.
Flow cytometric acquisition was performed using a BD Fortessa or Cytek Aurora cytometer. Data were analyzed with FlowJo software (v10.8.1 or newer). Fluorescence compensation, isotype-matched controls, and fluorescence-minus-one (FMO) controls were applied as appropriate for multicolor panel validation.
Cells were washed twice with PBS and lysed in 1 × lysis buffer (NCM, Cat. No. […]

[3] = system: Raji lymphoma cells
Experimental: For infection, human T cells were activated for 40 hours with plate-bound anti-CD3 (BioLegend, clone OKT3, 5 μg/mL) and soluble anti-CD28 antibodies (BioLegend, clone CD28.2, 2 μg/mL) antibodies and then resuspended in viral supernatant (MOI = 5) supplemented with recombinant human IL-2 (100 U/mL) and polybrene (10 μg/mL). The cell-virus mixture was subjected to spinoculation at 550g for 2 hours at room temperature, followed by incubation for 24 hours. Transduced CAR T cells were harvested on days 5 or 7 after activation for downstream functional assays.
The cytotoxic activity of CD19-targeting CAR T cells was evaluated using a luciferase-based bioluminescence assay. Raji cells stably expressing firefly luciferase (ffLuc) were resuspended in RPMI 1640 medium supplemented with 10% FBS and seeded into 24-well plates. CAR T cells were added at various effector-to-target (E:T) ratios, while tumor-only wells were included as negative controls. After 20 hours of coculture, 20,000 cells from each tumor-only control well were harvested, washed with PBS, resuspended in 100 μL of lysis buffer, and transferred to a black 96-well plate. Luminescence intensity was measured using a multimode plate reader, and the percentage of specific lysis was calculated as follows: % Cytotoxicity = 1 – (luminescence of coculture well/luminescence of tumor-only control well).

anteiso-C15 Leu7 surfactin [EpA]
enhanced antitumor efficacy in β2m-KO hosts [1]: completely abolished | ZAP70 phosphorylation, human Th9 [2]: increased phosphorylation of ZAP70 | cytotoxicity against Raji cells [3]: significantly greater cytotoxicity
